Results on 14 compounds are retold here after patent US5747235A, “Silver halide light sensitive emulsion layer having enhanced photographic sensitivity” (Eastman Kodak Company, priority 1996, dated 1998).

Data set [1] is described as follows: oxidation potential E1 by cyclic voltammetry. It counts as physicochemical. The following applies: Table A; 80%/20% acetonitrile/water, 0.1M lithium perchlorate, 25° C. As for the experimental part:
Oxidation potentials are well known and can be found, for example, in "Encyclopedia of Electrochemistry of the Elements", Organic Section, Volumes XI-XV, A. Bard and H. Lund (Editors) Marcel Dekker Inc., NY. (1984). E1 can be measured by the technique of cyclic voltammetry. In this technique, the electron donating compound is dissolved in a solution of 80%/20% by volume acetonitrile to water containing 0.1M lithium perchlorate. Oxygen is removed from the solution by passing nitrogen gas through the solution for 10 minutes prior to measurement. A glassy carbon disk is used for the working electrode, a platinum wire is used for the counter electrode, and a saturated calomel electrode (SCE) is used for the reference electrode. Measurement is conducted at 25° C. using a potential sweep rate of 0.1 V/sec. The oxidation potential vs. SCE is taken as the peak potential of the cyclic voltammetric wave.

Data set [2] in a line: fragmentation rate constant kfr by laser flash photolysis. It counts as physicochemical. The following applies: Table B; CH3CN/H2O (4:1). The source says: The kinetics of the bond cleavage or fragmentation reaction can be measured by conventional laser flash photolysis. […] The specific experimental apparatus we used to measure fragmentation rate constants and radical oxidation potentials is described in detail below.
(b) Fragmentation Rate Constant Determination
These absorptions were used to determine the kinetics of the fragmentation reactions of the radical cations of the X-Y. Excitation of 9,10-dicyanoanthracene (DCA) in the presence of biphenyl and the X-Y donor, as described above, results in the formation of the DCA^.cndot.- and the X-Y^.cndot.+. By using a concentration of X-Y of ca. 10^-2 M, the X-Y^.cndot.+ can be formed within ca. 20 ns of the laser pulse. […] The monitoring wavelengths used were somewhat different for the different donors, but were mostly around 470-530 nm. […] Alternatively, when the decay rate of the X-Y^.cndot.+ was less than 10^6 s^-1, the solutions were purged with oxygen.
The experiments measuring the fragmentation rate constants were performed in acetonitrile with the addition of 20% water, so that all of the salts could be easily solubilized. Most experiments were performed at room temperature. […] When this happened, the fragmentation rate constants were measured as a function of temperature, and the rate constant at room temperature determined by extrapolation.

Data set [3] can be described thus: oxidation potential E2 of radical X by laser flash photolysis. The settings on record: Table C; by parent XY compound; < = more negative than. In kind it is physicochemical. The source says: In this technique, the compound X-Y is oxidized by an electron transfer reaction initiated by a short laser pulse. The oxidized form of X-Y then undergoes the bond cleavage reaction to give the radical X^.cndot.. X^.cndot. is then allowed to interact with various electron acceptor compounds of known reduction potential. […] The experimental details are set forth more fully below. The oxidation potentials (E2) for radicals X^.cndot. for typical compounds useful in accordance with our invention are given in Table C. Where only limits on potentials could be determined, the following notation is used: <-0.90 V should be read as "more negative than -0.90 V" and >-0.40 V should be read as "less negative than -0.40 V".
(a) Oxidation Potential of Radical X.cndot.
The laser flash photolysis measurements were performed using a nanosecond pulsed excimer (Questek model 2620, 308 nm, ca. 20 ns, ca. 100 mJ) pumped dye laser (Lambda Physik model FL 3002). The laser dye was DPS (commercially available from Exciton Co.) in p-dioxane (410 nm, ca. 20 ns, ca. 10 mJ). The analyzing light source was a pulsed 150W xenon arc lamp (Osram XBO 150/W). The arc lamp power supply was a PRA model 302 and the pulser was a PRA model M-306. The pulser increased the light output by ca. 100 fold, for a time period of ca. 2-3 ms. The analyzing light was focussed through a small aperture (ca. 1.5 mm) in a cell holder designed to hold 1 cm^2 cuvettes. The laser and analyzing beams irradiated the cell from opposite directions and crossed at a narrow angle (ca. 15°). After leaving the cell, the analyzing light was collimated and focussed onto the slit (1 mm, 4 nm bandpass) of an ISA H-20 monochromator. The light was detected using 5 dynodes of a Hamamatsu model R446 photomultiplier. The output of the photomultiplier tube was terminated into 50 ohm, and captured using a Tektronix DSA-602 digital oscilloscope. The entire experiment is controlled from a personal computer.
The experiments were performed either in acetonitrile, or a mixture of 80% acetonitrile and 20% water. The first singlet excited state of a cyanoanthracene (A), which acted as the electron acceptor, was produced using the nanosecond laser pulse at 410 nm. […] Secondary electron transfer then occurred between B^.cndot.+ and the lower oxidation potential electron donor X-Y, to generate X-Y^.cndot.+ in high yield. For the investigations of the oxidation potentials of the radicals X^.cndot., typically the cyanoanthrancene concentration was ca. 2×10^-5 M to 10^-4 M the biphenyl concentration was ca. 0.1M. The concentration of the X-Y donor was ca. 10^-3 M. The rates of the electron transfer reactions are determined by the concentrations of the substrates. The concentrations used ensured that the A^.cndot.- and the X-Y^.cndot.+ were generated within 100 ns of the laser pulse. The radical ions could be observed directly by means of their visible absorption spectra. The kinetics of the photogenerated radical ions were monitored by observation of the changes in optical density at the appropriate wavelengths.
The reduction potential (Ered) of 9,10-dicyanoanthracene (DCA) is -0.91 V. In a typical experiment, DCA is excited and the initial photo-induced electron transfer from the biphenyl (B) to the DCA forms a DCA^.cndot.-, which is observed at its characteristic absorption maximum (λobs =705 nm), within ca. 20 ns of the laser pulse. Rapid secondary electron transfer occurs from X-Y to B^.cndot.+ to generate X-Y^.cndot.+, which fragments to give X^.cndot.. A growth in absorption is then observed at 705 nm with a time constant of ca. 1 microsecond, due to reduction of a second DCA by the X^.cndot.. The absorption signal with the microsecond growth time is equal to the size of the absorption signal formed within 20 ns.
If the oxidation potential of X^.cndot. is not sufficiently negative to reduce DCA, an estimate of its oxidation potential was obtained by using other cyanoanthracenes as acceptors. […]

A short description of data set [4]: Example 7: photographic speed and fog with/without HB3, 365 nm exposure, emulsion T-2. The following applies: emulsions containing red or blue sensitizing dye and electron donor. As for the experimental part:
For photographic evaluation, each of the coating strips was exposed for 0.1 sec to a 365 nm emission line of a Hg lamp filtered through a Kodak Wratten filter number 18A and a step wedge ranging in density from 0 to 4 density units in 0.2 density steps. The exposed film strips were developed for 6 min in Kodak Rapid X-ray Developer (KRX). S365, relative sensitivity at 365 nm, was evaluated at a density of 0.2 units above fog.
An AgBrI tabular silver halide emulsion (Emulsion T-2) was prepared containing 4.05% total I distributed such that the central portion of the emulsion grains contained 1.5% I and the perimeter area contained substantially higher I, as described by Chang et. al., U.S. Pat. No. 5,314,793. […] This emulsion was precipitated using deionized gelatin. The emulsion was sulfur sensitized by adding 8.5×10^-6 mole 1,3-dicarboxymethyl-1,3-dimethyl-2-thiourea /mole Ag at 40° C.; the temperature was then raised to 60° C. at a rate of 5° C./3 min and the emulsions held for 20 min before cooling to 40° C. The chemically sensitized emulsion was then used to prepare coatings containing the fragmentable two-electron donor compounds. […] Where present, the blue sensitizing dye D-I or the red sensitizing dye D-II were added from methanol solution to the emulsion at 40° C. after the chemical sensitization and disulfocatechol addition. The fragmentable two-electron donor compounds were added to the emulsion at 40° C. and the coatings were prepared and tested as described in Example 1, except that the additional gelatin used to prepare the coatings described in Table III was deionized gelatin.
Where present the blue sensitizing dye D-I or the red sensitizing dye D-II were added from methanol solution to the emulsion at 40° C. after the chemical sensitization and disulfocatechol addition. The fragmentable two-electron donating compounds were then added to the emulsion and coatings prepared as described in Example 1, except that the additional gelatin used to prepare the coatings described in Table VII was deionized gelatin. The coatings were tested for their response to a 365 nm exposure as described in Example 1.

The structures appear in SMILES notation. A value given as a limit tells only on which side of the number the result lay.

For the compound `CN(C)c1ccc(CC(=O)O)cc1` [Compound 1], the “Oxidation Potential of X--Y, E1” value in data set [1] came out at 0.53 V vs SCE. For the same compound, the “kfr, Rate Constants for Decarboxylation of Radical Cations” value (“kfr, Rate Constants for Decarboxylation” below) in data set [2] is ~ 3.0 × 10^5 s^-1. Besides, the “Oxidation Potentials of Radicals (X*), E2” value (“Oxidation Potentials” for short) in data set [3] is given as above -0.5 V.
Taken in the same sequence, the figures for `COc1ccc(N(CC(=O)O)CC(=O)O)cc1` [Compound 10] were 0.38 V vs SCE, 9300 s⁻¹ and below -0.9 V.
Taken in the same sequence, the figures for `Cc1ccc(N(CC(=O)O)CC(=O)O)cc1` [Compound 11] were 0.46 V vs SCE, 1.6e+06 s⁻¹ and ~ -0.9 V.
The corresponding values for `O=C(O)CN(CC(=O)O)c1ccccc1` [Compound 13] are 0.54 V vs SCE, 1.7e+07 s⁻¹ and ~ -0.85 V.
Take `CC(C(=O)O)N(CC(=O)O)c1ccccc1` (stereo not shown) [Compound 14]: the “Oxidation Potential of X--Y, E1” value in data set [1] amounted to 0.50 V vs SCE. Besides, in data set [2], the “kfr, Rate Constants for Decarboxylation” value is above 2e+07 s⁻¹. For the same compound, the “Oxidation Potentials” value in data set [3] was below -0.9 V.
On to `COc1ccc(N(CC(=O)O)C(C)C(=O)O)cc1` (stereo not shown) [Compound 15], for which the “Oxidation Potential of X--Y, E1” value in data set [1] was found to be 0.36 V vs SCE. For the same compound, the “kfr, Rate Constants for Decarboxylation” value in data set [2] worked out at 90000 s⁻¹. Besides, the “Oxidation Potentials” value in data set [3] is below -0.9 V.
Taken in the same sequence, the figures for `Cc1ccc(N(CC(=O)O)C(C)C(=O)O)cc1` (stereo not shown) [Compound 20] were 0.46 V vs SCE, 8.1e+06 s⁻¹ and below -0.9 V.
The corresponding values for `Cc1ccc(NC(CC(=O)O)C(=O)O)cc1` (stereo not shown) [Compound 29] are 0.52 V vs SCE, 5.4e+06 s⁻¹ and below -0.9 V.
As for `CCCCN(c1ccc(OC)cc1)C(C)C(=O)O` (stereo not shown) [Compound 36], the “Oxidation Potential of X--Y, E1” value in data set [1] amounted to 0.22 V vs SCE. In addition, the “kfr, Rate Constants for Decarboxylation” value in data set [2] worked out at 1.1e+06 s⁻¹. Moreover, the “Oxidation Potentials” value in data set [3] is listed as below -0.9 V.
As for `Cn1cc(C(C)(C)C(=O)O)c2ccccc21` [Compound 44], in data set [1], the “Oxidation Potential of X--Y, E1” value is recorded as 0.64 V vs SCE. Further, the “kfr, Rate Constants for Decarboxylation” value in data set [2] was 530000 s⁻¹. In addition, in data set [3], the “Oxidation Potentials” value is -0.81 V.
`Cc1ccc(NC(C)C(=O)O)cc1` (stereo not shown) [Compound 54]: in data set [1], the “Oxidation Potential of X--Y, E1” value is 0.44 V vs SCE. The “kfr, Rate Constants for Decarboxylation” value in data set [2] was 1.4e+07 s⁻¹. Also, the “Oxidation Potentials” value in data set [3] is listed as below -0.9 V.
The corresponding values for `O=C(O)C(O)c1c2ccccc2cc2ccccc12` (stereo not shown) [Compound 56] are 0.65 V vs SCE, 120000 s⁻¹ and below -0.9 V.
The corresponding values for `CC(C(=O)O)N1c2ccccc2Sc2ccccc21` (stereo not shown) [Compound 57] are 0.49 V vs SCE, “ca. 1 × 10^5 s^-1” and below -0.9 V.
Take `O=S(=O)(O)c1cc(O)c(O)c(S(=O)(=O)O)c1` [HB3, 2,4-disulfocatechol, reference compound]: the “effect on fog” value in data set [4] was “the level of fog can be lowered”.
